Measured values: publication PMC10817170, “Effect of an NHE3 inhibitor in combination with an NPT2b inhibitor on gastrointestinal phosphate absorption in Rodent models” (PLOS ONE, 2024)

Target: T1, Human NPT2b (Homo sapiens, UniProt O95436)
T1 construct: expressed in transfected cells; host or cells: T-Rex CHO (Thermo Fisher Scientific), tetracycline-inducible
T1 sequence (O95436 1-690): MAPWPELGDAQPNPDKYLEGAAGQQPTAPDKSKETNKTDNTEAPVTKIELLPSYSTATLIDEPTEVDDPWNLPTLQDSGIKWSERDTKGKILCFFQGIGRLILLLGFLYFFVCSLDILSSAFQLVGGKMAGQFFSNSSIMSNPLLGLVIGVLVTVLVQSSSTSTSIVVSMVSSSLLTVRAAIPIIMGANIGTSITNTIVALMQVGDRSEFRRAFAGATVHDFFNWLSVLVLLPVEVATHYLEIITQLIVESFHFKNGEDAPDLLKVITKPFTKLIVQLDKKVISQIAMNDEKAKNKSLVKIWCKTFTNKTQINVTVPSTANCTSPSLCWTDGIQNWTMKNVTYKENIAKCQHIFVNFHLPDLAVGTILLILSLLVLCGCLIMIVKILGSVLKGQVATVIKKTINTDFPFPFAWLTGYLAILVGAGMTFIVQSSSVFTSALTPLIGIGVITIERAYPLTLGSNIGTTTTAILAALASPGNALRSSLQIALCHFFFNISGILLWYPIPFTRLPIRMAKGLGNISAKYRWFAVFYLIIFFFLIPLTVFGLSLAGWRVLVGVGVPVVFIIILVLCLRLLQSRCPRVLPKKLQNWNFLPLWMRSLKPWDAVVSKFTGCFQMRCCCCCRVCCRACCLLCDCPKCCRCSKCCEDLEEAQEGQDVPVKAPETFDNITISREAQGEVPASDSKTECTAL
Assay: NPT2b activity assay (33P-phosphate uptake in T-Rex CHO cells)
Format: cell-based
Conditions: geometric mean, n=3
Experimental: Generation of inducible human, mouse, and rat NPT2b overexpressing T-Rex™ Chinese Hamster Ovary (CHO, Thermo Fisher Scientific) cells and the NPT2b activity assay were described previously. Briefly, cells were plated in 96-well CytoStar-T® scintillating microplates and were incubated overnight in medium plus 100 ng/mL of tetracycline to induce the expression of human NPT2b. The cells were then washed 3 times with 200 μL Assay Buffer (137 mM NaCl, 5.4 mM KCl, 2.8 mM CaCl2, 1.2 mM MgSO4, and 14 mM Tris-HCl buffer, pH 7.5). LY3304000 serially diluted 1-to-3 in DMSO was added to cells with Assay Buffer. An equal volume of H3^33PO4 (PerkinElmer) in Assay Buffer supplemented with 5 μM potassium phosphate was then added to initiate radiolabeled phosphate (^33P-phosphate) uptake. The final phosphate concentration was 2.5 μM. Following a 60-minute incubation at room temperature, an equal volume of Assay Buffer containing 400 μM phloretin was added to stop ^33P-phosphate uptake. The plate was immediately read on a Wallac MicroBeta Trilux liquid scintillation counter. Percent inhibition at all concentrations tested was calculated, and IC50 values were then determined using a 4-parameter logistic curve fitting equation.

In the case of CN1Cc2c(Cl)cc(Cl)cc2[C@H](c2cccc(S(=O)(=O)NCCOCCOCCN/C(=N\C(N)=O)NCCCCN/C(=N/C(N)=O)NCCOCCOCCNS(=O)(=O)c3cccc([C@@H]4CN(C)Cc5c(Cl)cc(Cl)cc54)c3)c2)C1.Cl.Cl [LY3304000, (Z)-[[4-[[(Z)-N’-carbamoyl-N-[2-[2-[2-[[3-[(4S)-6,8-dichloro-2-methyl-3,4-dihydro-1H-isoquinolin-4-yl]phenyl]sulfonylamino]ethoxy]ethoxy]ethyl]carbamimidoyl]amino]butylamino]-[2-[2-[2-[[3-[(4S)-6,8-dichloro-2-methyl-3,4-dihydro-1H-isoquinolin-4-yl]phenyl]sulfonylamino]ethoxy]ethoxy]ethylamino]methylene]urea dihydrochloride], the IC50 is reported as 58.4 µM.
